US6867185B2 (Bristol-Myers Squibb Company, priority 2001, dated 2005)
Where a name gives a salt, the structure may show the parent alone.

How the values were obtained:
[1] = tested on: HCV replicon in Huh7 cells; experiment: HCV replicon cell-based assay (replicon FRET assay); set-up: species or system HCV strain 1B; conditions: Hepatitis C virus, Huh-7, HCV replicon cell assay; EC50 ranges
From the text: An HCV replicon whole cell system was established as described by Lohmann V, Korner F, Koch J, Herian U, Theilmann L, Bartenschlager R., Science 285 (5424):110-3 (1999). This system enabled us to evaluate the effects of our HCV Protease compounds on HCV RNA replication. Briefly, using the HCV strain 1B sequence described in the Lohmann paper (Assession number:AJ238799), an HCV cDNA was generated encoding the 5′ internal ribosome entry site (IRES), the neomycin resistance gene, the EMCV (encephalomyocarditis viurs)-IRES and the HCV nonstructural proteins, NS3-NS5B, and 3′ non-translated region (NTR). In vitro transcripts of the cDNA were transfected into the human hepatoma cell line, Huh7. […] Resulting cell lines were characterized for positive and negative strand RNA production and protein production over time.
Huh7 cells, constitutively expressing the HCV replicon, were grown in Dulbecco's Modified Eagle Media (DMEM) containing 10% Fetal calf serum (FCS) and 1 mg/ml G418 (Gibco-BRL). Cells were seeded the night before (1.5×10^4 cells/well) in 96-well tissue-culture sterile plates. Compound and no compound controls were prepared in DMEM containing 4% FCS, 1:100 Penicillin/Streptomysin, 1:100 L-glutamine and 5% DMSO in the dilution plate (0.5% DMSO final concentration in the assay). Compound/DMSO mixes were added to the cells and incubated for 4 days at 37° C. After 4 days, plates were rinsed thoroughly with Phosphate-Buffered Saline (PBS) (3 times 150 μl). The cells were lysed with 25 μl of a lysis assay reagent containing the FRET peptide (RET S1, as described for the in vitro enzyme assay). The lysis assay reagent was made from 5× cell Luciferase cell culture lysis reagent(Promega #E153A) diluted to 1× with distilled water, NaCl added to 150 mM final, the FRET peptide diluted to 10 μM final from a 2 mM stock in 100% DMSO. The plate was then placed into the Cytofluor 4000 instrument which had been set to 340 nm excitation/490 emission, automatic mode for 21 cycles and the plate read in a kinetic mode. EC50 determinations were carried out as described for the IC50 determinations.

[2] = target: T1, HCV NS3/4A protease complex, BMS strain (genotype 1a) (Hepatitis C virus genotype 1a, UniProt P27958, C1454S/C1711G); experiment: Recombinant HCV NS3/4A protease complex FRET peptide assay (BMS strain); format: biochemical; conditions: IC50, HCV NS3/4A protease FRET assay in vitro; IC50 ranges
T1 construct: recombinant HCV NS3/4A protease complex (amino'acids 1027 to 1711); inferred from the pET21b vector and Ni-NTA purification; made in house; host or cells: Escherichia coli BL21 (DE3), pET21b
From the text: The purpose of this in vitro assay was to measure the inhibition of HCV NS3 protease complexes, derived from the BMS, H77C or J4L6S strains, as described below, by compounds of the present invention. This assay provides an indication of how effective compounds of the present invention would be in inhibiting HCV proteolytic activity.
Serum from an HCV-infected patient was obtained from Dr. T. Wright, San Francisco Hospital. An engineered full-length cDNA (compliment deoxyribonucleic acid) template of the HCV genome (BMS strain) was constructed from DNA fragments obtained by reverse transcription-PCR (RT-PCR) of serum RNA (ribonucleic acid) and using primers selected on the basis of homology between other genotype 1a strains. From the determination of the entire genome sequence, a genotype 1a was assigned to the HCV isolate according to the classification of Simmonds et al. (See P Simmonds, K A Rose, S Graham, S W Chan, F McOmish, B C Dow, E A Follett, P L Yap and H Marsden, J. Clin. Microbiol., 31 (6), 1493-1503 (1993)). […] The infectious clones, H77C (1a genotype) and J4L6S (1b genotype) were obtained from R. Purcell (N1H) and the sequences are published in Genbank (AAB67036, see Yanagi, M., Purcell, R. H., Emerson, S. U. and Bukh, J. Proc. Natl. Acad. Sci. U.S.A. 94 (16), 8738-8743 (1997); AF054247, see Yanagi, M., St Claire, M., Shapiro, M., Emerson, S. U., Purcell, R. H. and Bukh, J, Virology 244 (1), 161-172. (1998)).
The BMS, H77C and J4L6S strains were used for production of recombinant NS3/4A protease complexes. DNA encoding the recombinant HCV NS3/4A protease complex (amino'acids 1027 to 1711) for these strains were manipulated as described by P. Gallinari et al. (see Gallinari P, Paolini C, Brennan D, Nardi C, Steinkuhler C, De Francesco R. Biochemistry. 38 (17):5620-32, (1999)). Briefly, a three-lysine solubilizing tail was added at the 3′-end of the NS4A coding region. The cysteine in the P1 position of the NS4A-NS4B cleavage site (amino acid 1711) was changed to a glycine to avoid the proteolytic cleavage of the lysine tag. Furthermore, a cysteine to serine mutation was introduced by PCR at amino acid position 1454 to prevent the autolytic cleavage in the NS3 helicase domain. The variant DNA fragment was cloned in the pET21b bacterial expression vector (Novagen)and the NS3/4A complex was expressed in Escherichia. coli strain BL21 (DE3) (Invitrogen) following the protocol described by P. Gallinari et al. (see Gallinari P, Brennan D, Nardi C, Brunetti M, Tomei L, Steinkuhler C, De Francesco R., J. Virol. 72 (8):6758-69 (1998)) with modifications. Briefly, NS3/4A expression was induced with 0.5 mM Isopropyl β-D-1-thiogalactopyranoside (IPTG) for 22 hr at 20° C. A typical fermentation (10L) yielded approximately 80 g of wet cell paste. The cells were resuspended in lysis buffer (10 mL/g) consisting of 25 mM N-(2-Hydroxyethyl)Piperazine-N′-(2-Ethane Sulfonic acid) (HEPES), pH 7.5, 20% glycerol, 500 mM Sodium Chloride (NaCl), 0.5% Triton-X100, 1 ug/ml lysozyme, 5 mM Magnesium Chloride (MgCl2), 1 ug/ml Dnasel, 5 mM β-Mercaptoethanol (OME), Protease inhibitor-Ethylenediamine Tetraacetic acid (EDTA) free (Roche), homogenized and incubated for 20 mins at 4° C. The homogenate was sonicated and clarified by ultra-centrifugation at 235000 g for 1 hr at 4° C. Imidazole was added to the supernatant to a final concentration of 15 mM and the pH adjusted to 8.0. The crude protein extract was loaded on a Nickel-Nitrilotriacetic acid (Ni-NTA) column pre-equilibrated with buffer B (25 mM HEPES, pH 8.0, 20% glycerol, 500 mM NaCl, 0.5% Triton-X100, 15 mM imidazole, 5 mM βME). The sample was loaded at a flow rate of 1 mL/min. The column was washed with 15 column volumes of buffer C (same as buffer B except with 0.2% Triton-X100). The protein was eluted with 5 column volumes of buffer D (same as buffer C except with 200 mM Imidazole). […]

T1 sequence (P27958 1027-1711 C1454S/C1711G, one chain of several): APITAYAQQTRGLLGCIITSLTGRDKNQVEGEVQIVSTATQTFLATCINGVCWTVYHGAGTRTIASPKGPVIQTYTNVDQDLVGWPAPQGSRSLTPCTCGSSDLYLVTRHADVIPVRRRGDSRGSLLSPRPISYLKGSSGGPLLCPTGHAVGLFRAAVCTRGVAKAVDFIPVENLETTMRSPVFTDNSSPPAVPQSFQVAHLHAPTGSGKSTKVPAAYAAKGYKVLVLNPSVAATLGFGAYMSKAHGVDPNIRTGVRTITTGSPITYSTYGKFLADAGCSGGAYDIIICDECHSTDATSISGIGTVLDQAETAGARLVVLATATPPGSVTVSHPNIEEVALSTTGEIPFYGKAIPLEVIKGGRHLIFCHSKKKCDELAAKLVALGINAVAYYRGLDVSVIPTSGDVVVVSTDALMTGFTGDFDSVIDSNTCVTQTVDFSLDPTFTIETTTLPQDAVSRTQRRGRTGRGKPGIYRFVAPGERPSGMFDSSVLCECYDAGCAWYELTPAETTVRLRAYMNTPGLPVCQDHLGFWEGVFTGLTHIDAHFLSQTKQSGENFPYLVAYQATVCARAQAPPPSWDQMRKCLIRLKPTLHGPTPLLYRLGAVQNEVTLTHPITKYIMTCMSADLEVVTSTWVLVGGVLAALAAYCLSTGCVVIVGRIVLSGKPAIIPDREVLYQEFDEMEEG

SMILES	EC50 [1] [nM]	IC50 [2] [nM]
COc1ccc2c(O[C@@H]3C[C@H]4C(=O)N[C@]5(C(=O)NS(=O)(=O)C6CC6)C[C@H]5/C=C\CCCCC[C@@H](NC(=O)OC(C)(C)C)C(=O)N4C3)ccnc2c1 [Compound 12]	< 500	< 500
COc1ccc2c(O[C@@H]3C[C@H]4C(=O)N[C@]5(C(=O)NS(=O)(=O)C6CC6)C[C@H]5CCCCCC[C@H](NC(=O)OC(C)(C)C)C(=O)N4C3)cc(-c3ccccc3)nc2c1 [Compound 13, (1S,4R,6R,13S,17R)-[4-Cyclopropanesulfonylaminocarbonyl-17-(7-methoxy-2-phenylquinolin-4-yloxy)-2,14-dioxo-3,15-diazatricyclo[13.3.0.0^4,6]-octadec-13-yl]-carbamic acid tert-butyl ester]	< 50	< 50
COc1ccc2c(O[C@@H]3C[C@H]4C(=O)N[C@]5(C(=O)NS(=O)(=O)C6CC6)C[C@H]5CCCCCC[C@H](N)C(=O)N4C3)cc(-c3ccccc3)nc2c1 [Compound 14, (1S,4R,6R,13S,17R)-Cyclopropanesulfonic acid [13-amino-17-(7-methoxy-2-phenylquinolin-4-yloxy)-2,14-dioxo-3,15-diazatricyclo[13.3.0.0^4,6]-octadecane-4-carbonyl]amide dihydrochloride]	< 50	< 50
COc1ccc2c(O[C@@H]3C[C@H]4C(=O)N[C@]5(C(=O)NS(=O)(=O)C6CC6)C[C@H]5CCCCCCC[C@H](NC(=O)OC(C)(C)C)C(=O)N4C3)cc(-c3ccccc3)nc2c1 [Compound 15, (1S,4R,6R,14S,18R)-[4-Cyclopropanesulfonylaminocarbonyl-18-(7-methoxy-2-phenylquinolin-4-yloxy)-2,15-dioxo-3,16-diazatricyclo-[14.3.0.0^4,6]nonadec-14-yl]carbamic acid tert-butyl ester]	< 50	< 50
COc1ccc2c(O[C@@H]3C[C@H]4C(=O)N[C@]5(C(=O)NS(=O)(=O)C6CC6)C[C@H]5CCCCCCC[C@H](N)C(=O)N4C3)cc(-c3ccccc3)nc2c1 [Compound 16, (1S,4R,6R,14S,18R)-Cyclopropanesulfonic acid [14-amino-18-(7-methoxy-2-phenylquinolin-4-yloxy)-2,15-dioxo-3,16-diazatricyclo[14.3.0.0^4,6]-nonadecane-4-carbonyl]amide dihydrochloride]	< 50	< 50
COc1ccc2c(O[C@@H]3C[C@H]4C(=O)N[C@]5(C(=O)NS(=O)(=O)C6CCC6)C[C@H]5/C=C\CCCC[C@H](NC(=O)OC(C)(C)C)C(=O)N4C3)cc(-c3ccccc3)nc2c1 [Compound 17, (1S,4R,6S,13S,17R)-7-cis-[4-Cyclobutanesulfonylaminocarbonyl-17-(7-methoxy-2-phenylquinolin-4-yloxy)-2,14-dioxo-3,15-diazatricyclo[13.3.0.0^4,6]octadec-7-en-13-yl]carbamic acid tert-butyl ester]	< 500	< 50
COc1ccc2c(O[C@@H]3C[C@H]4C(=O)N[C@]5(C(=O)NS(=O)(=O)C6CCC6)CC5CCCCCC[C@H](NC(=O)OC(C)(C)C)C(=O)N4C3)cc(-c3ccccc3)nc2c1 (stereo partly drawn) [Compound 18, (1S,4R,6R,13S,17R)-[4-Cyclobutanesulfonylaminocarbonyl-17-(7-methoxy-2-phenylquinolin-4-yloxy)-2,14-dioxo-3,15-diazatricyclo[13.3.0.0^4,6]octa-dec-13-yl]carbamic acid tert-butyl ester]	< 50	< 50
COc1ccc2c(O[C@@H]3C[C@H]4C(=O)N[C@]5(C(=O)NS(=O)(=O)C6CCC6)CC5CCCCCCC[C@H](NC(=O)OC(C)(C)C)C(=O)N4C3)cc(-c3ccccc3)nc2c1 (stereo partly drawn) [Compound 19, (1S,4R,6R,14S,18R)-[4-Cyclobutanesulfonylaminocarbonyl-18-(7-methoxy-2-phenylquinolin-4-yloxy)-2,15-dioxo-3,16-diazatricyclo-[14.3.0.0^4,6]nona-dec-14-yl]carbamic acid tert-butyl ester]	< 50	< 50
COc1ccc2c(O[C@@H]3C[C@H]4C(=O)N[C@]5(C(=O)NS(=O)(=O)C6CC6)CC5/C=C\CCCCC[C@H](NC(=O)NC(C)(C)C)C(=O)N4C3)cc(-c3ccccc3)nc2c1 (stereo partly drawn) [Compound 20, (1S,4R,6S,14S,18R)-7-cis-Cyclopropanesulfonic acid [14-(3-tert-butylureido)-18-(7-methoxy-2-phenyl-quinolin-4-yloxy)-2,15-dioxo-3,16-diazatricyclo[14.3.0.0^4,6]nona-dec-7-ene-4-carbonyl]amide]	< 50	< 50
COc1ccc2c(O[C@@H]3C[C@H]4C(=O)N[C@]5(C(=O)NS(=O)(=O)C6CC6)C[C@H]5/C=C\CCCCC[C@H](NC(=O)OCCF)C(=O)N4C3)cc(-c3ccccc3)nc2c1 [Compound 21, (1S,4R,6S,14S,18R)-7-cis-[4-Cyclopropanesulfonylaminocarbonyl-18-(7-methoxy-2-phenylquinolin-4-yloxy)-2,15-dioxo-3,16-diazatricyclo-[14.3.0.0^4,6]nonadec-7-en-14-yl]carbamic acid 2-fluoroethyl ester]	< 50	< 50
